Assay [1] has as its target T1, recombinant human PMYT-1 (Myt1 kinase) (Homo sapiens, UniProt Q99640).
T1 construct: full length PMYT-1 was expressed by baculovirus in insect cells using a N-terminal GST tag; purchased Invitrogen A30984; host or cells: insect cells (baculovirus)
T1 sequence (Q99640 1-499): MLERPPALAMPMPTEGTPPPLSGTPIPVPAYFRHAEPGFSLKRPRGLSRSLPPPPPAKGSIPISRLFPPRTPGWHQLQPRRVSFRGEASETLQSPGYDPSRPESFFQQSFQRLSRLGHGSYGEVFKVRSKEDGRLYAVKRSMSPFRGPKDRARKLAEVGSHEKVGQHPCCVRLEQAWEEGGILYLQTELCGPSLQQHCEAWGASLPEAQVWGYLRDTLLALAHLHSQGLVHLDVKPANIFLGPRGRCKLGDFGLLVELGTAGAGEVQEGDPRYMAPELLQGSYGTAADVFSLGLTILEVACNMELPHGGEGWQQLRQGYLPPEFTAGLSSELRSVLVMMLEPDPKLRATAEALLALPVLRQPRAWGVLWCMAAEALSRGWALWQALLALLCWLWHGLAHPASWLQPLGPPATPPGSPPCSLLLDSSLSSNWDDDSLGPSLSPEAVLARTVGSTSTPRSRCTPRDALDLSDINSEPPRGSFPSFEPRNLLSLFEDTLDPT
Description: LanthaScreen Europium (Eu) Kinase Binding Assay for Myt1 kinase. Conditions: TR-FRET tracer 178 displacement, GST-tagged full length PMYT-1, 60 min, room temperature; mean IC50; read-out: LANTHA Kinase Binding for PMyt1. From the text: We used a LanthaScreen Europium (Eu) Kinase Binding Assay to determine the binding of provided compounds to Myt1 kinase. The assay utilizes an Alexa Fluor 647-labeled ATP competitive kinase tracer that binds to the ATP binding site of a GST-tagged Myt1 kinase, while a europium (Eu) labeled antibody binds to the GST tag. The proximity of fluorescently labeled kinase tracer and europium (Eu) donor fluorophore antibody leads to fluorescence resonance energy transfer (FRET) to the fluorescence label (acceptor) upon excitation of the Eu (donor). Displacement of tracer from the ATP-binding site by a test compound disturbs the proximity between both labels thus lowering the FRET.
This time resolved-FRET binding assay was performed in white 384-well low volume plates (Greiner, cat #784075), at room temperature in kinase buffer A (KBA; Invitrogen cat # PV3189), consisting of 50 mM HEPES-NaOH (pH 7.5), 0.01% Brij-35, 10 mM MgCl2, and 1 mM EGTA. 5 μl of compound (diluted in reaction buffer, to 1% DMSO) were added to various wells in the plate, followed by 5 μl each of recombinant human PMYT-1 (full length PMYT-1 was expressed by baculovirus in insect cells using a N-terminal GST tag (MW: 80.8 kDa) (Invitrogen cat #A30984) and LanthaScreen Eu-anti-GST antibody (Invitrogen, cat #PV5594). After this, 5 μl of kinase tracer 178 (Invitrogen, cat #PV5593) was added to the plate and the plate was incubated for 60 minutes at room temperature. The final assay conditions in each well were: 3 nM tracer 178, 2.5 nM PMYT-1 and 1 nM Eu-labeled antibody in total assay volume of 15 μl. An Envision 2104 (Perkin-Elmer) Plate Reader with the following time-resolve fluorescence setting was used for performing LanthaScreen kinase binding assay. • Excitation 320 nm (30 nm bandpass) • Kinase Tracer Emission 665 nm (10 nm bandpass) • LanthaScreen Eu-anti-Tag Antibody Emission 615 nm (10 nm bandpass) • Dichroic Mirror Instrument dependent • Delay Time 100 μs • Integration Time 200 μs
To calculate the emission ratio, the acceptor/tracer emission ([…]) was divided by the antibody/donor emission ([…]) and the average of duplicate measurement was used for calculations. Data plotting, analysis of binding, and curve fitting was done using Excel add-in XLfit version 5.5.0.5 (IDBS, Guildford, United Kingdom).

The next assay deals with T2, Myt1 Kinase (Homo sapiens, UniProt Q99640).
T2 construct: endogenous in cells; host or cells: DAOY medulloblastoma cells (ATCC)
T2 sequence (Q99640 1-499): T1 sequence (Q99640 1-499)
Description: AlphaLISA SureFire Ultra Human Phospho-CDK1 (Thr14) target engagement assay in DAOY cells. Format: cell-based. To be noted: 4 h incubation, Cdk1 phosphorylated on threonine 14, read-out: TE Myt1 Kinase (AlphaLISA). On the procedure:
The following cellular assay was used to determine the extent to which the compounds disclosed herein inhibit phosphorylation of CDK1 at Thr 14.
DAOY medulloblastoma cell line (ATCC) was cultured in Minimum Essential Medium Eagle supplemented with 10% fetal calf serum (Sigma), 1% Penicillin-Streptomycin and 10 mM HEPES buffer (HyClone). Cell cultures were kept in a humidified incubator at 37° C. and 5% CO2. Cells were routinely tested for Mycoplasma contamination.
For target engagement assessment, quantification of Cdk1 phosphorylated on threonine 14 was detected using the AlphaLISA® SureFire® Ultra™ Human Phospho-CDK1 (Thr14) assay (Perkin Elmer). DAOY cells were seeded into tissue culture 96-well plates (VWR) to a density of 10,000 cells per well. Twenty-four hours post-seeding cells were incubated for 4 h with test compounds at concentrations ranging from 7 to 5000 nM. Cells were washed with PBS and lysed in 50 μl AlphaLISA® lysis buffer before freezing at −80° C. Ten μl of the lysate was transferred to 384 well plates and incubated with AlphaLISA® donor and acceptor beads according to the manufacturer's instructions. Dose response curves and EC50 values were calculated and visualized using GraphPad Prism version 9.

In the case of `Cc1ccc2[nH]nc(C)c2c1-n1nc(-c2ccco2)c(C(N)=O)c1N` (atropisomer, axis not shown) [Compound 116, 5-amino-1-(3,5-dimethyl-1H-indazol-4-yl)-3-(furan-2-yl)-1H-pyrazole-4-carboxamide], in assay [1], the IC50 was over 250 nM.
Still for that read-out and setting: for `Cc1ccc2[nH]nc(C)c2c1-n1nc(-c2ccco2)c(C(N)=O)c1N` (single isomer, unassigned) [Compound 103, 5-amino-1-(3,5-dimethyl-1H-indazol-4-yl)-3-(furan-2-yl)-1H-pyrazole-4-carboxamide] the value was 10 to 100 nM.
Take `Cc1ccc(O)c(C)c1-n1nc(-c2ccco2)c(C(N)=O)c1N` (single isomer, unassigned) [Compound 105, 5-amino-3-(furan-2-yl)-1-(3-hydroxy-2,6-dimethylphenyl)-1H-pyrazole-4-carboxamide]: at Myt1 Kinase, the EC50 was over 1000 nM. Besides, in assay [1], the IC50 was in the range of 10 to 100 nM.
As to `Cc1ccc(O)c(C)c1-n1nc(-c2cc3ccccc3o2)c(C(N)=O)c1N` (single isomer, unassigned) [Compound 109, 5-amino-3-(benzofuran-2-yl)-1-(3-hydroxy-2,6-dimethylphenyl)-1H-pyrazole-4-carboxamide], the IC50 in assay [1] is over 250 nM.
As for `Cc1ccc(O)c(C)c1-n1nc(-c2cc(Br)co2)c(C(N)=O)c1N` (single isomer, unassigned) [Compound 110, 5-amino-3-(4-bromofuran-2-yl)-1-(3-hydroxy-2,6-dimethylphenyl)-1H-pyrazole-4-carboxamide], the IC50 in assay [1] was in the range of 100 to 250 nM.
Take `Cc1ccc(O)cc1-n1nc(-c2ccccc2)c(C(N)=O)c1N` [Compound 1, 5-amino-1-(5-hydroxy-2-methylphenyl)-3-phenyl-1H-pyrazole-4-carboxamide]: the EC50 at Myt1 Kinase was in the range of 500 to 1000 nM. In assay [1], the IC50 lay within 100 to 250 nM.
`Cc1ccc(O)cc1-n1nc(-c2ccc(F)cc2)c(C(N)=O)c1N` [Compound 2, 5-amino-3-(4-fluorophenyl)-1-(5-hydroxy-2-methylphenyl)-1H-pyrazole-4-carboxamide]: the IC50 in assay [1] is 100 to 250 nM.
On the same count and under the same terms, for `COc1ccc(-c2nn(-c3cc(O)ccc3C)c(N)c2C(N)=O)cc1` [Compound 3, 5-amino-1-(5-hydroxy-2-methylphenyl)-3-(4-methoxyphenyl)-1H-pyrazole-4-carboxamide] the value was over 250 nM.
`Cc1ccc(O)cc1-n1nc(-c2ccc(Cl)cc2)c(C(N)=O)c1N` [Compound 4, 5-amino-3-(4-chlorophenyl)-1-(5-hydroxy-2-methylphenyl)-1H-pyrazole-4-carboxamide]: the EC50 on Myt1 Kinase was over 1000 nM. Besides, the IC50 in assay [1] was in the range of 100 to 250 nM.
With `Cc1ccc2[nH]ncc2c1-n1nc(-c2ccccc2)c(C(N)=O)c1N` [Compound 5, 5-amino-1-(5-methyl-1H-indazol-4-yl)-3-phenyl-1H-pyrazole-4-carboxamide], the EC50 at Myt1 Kinase was over 1000 nM. Besides, in assay [1], the IC50 was 10 to 100 nM.
On the same counts, the results for `Cc1ccc(O)cc1-n1nc(-c2cccc(Br)c2)c(C(N)=O)c1N` [Compound 6, 5-amino-3-(3-bromophenyl)-1-(5-hydroxy-2-methylphenyl)-1H-pyrazole-4-carboxamide] are over 1000 nM and over 250 nM.
As to `Cc1ccc(O)cc1-n1nc(-c2cccc(-c3ccncc3)c2)c(C(N)=O)c1N` [Compound 7, 5-amino-1-(5-hydroxy-2-methylphenyl)-3-[3-(pyridin-4-yl)phenyl]-1H-pyrazole-4-carboxamide], the IC50 in assay [1] was over 250 nM.
In the case of `Cc1ccc(O)cc1-n1nc(-c2cccc(C3CCNCC3)c2)c(C(N)=O)c1N` [Compound 8, 5-amino-1-(5-hydroxy-2-methylphenyl)-3-[3-(piperidin-4-yl)phenyl]-1H-pyrazole-4-carboxamide], the IC50 in assay [1] was over 250 nM.
As to `COc1ccc(S(=O)(=O)O)cc1-c1nn(-c2c(C)ccc(O)c2C)c(N)c1C(N)=O` [Compound 60], the IC50 in assay [1] is over 250 nM.
Consider `Cc1ccc(O)c(C)c1-n1nc(-c2cccc(F)c2)c(C(N)=O)c1N` [Compound 61], for which the EC50 at Myt1 Kinase is over 1000 nM. For the same compound, in assay [1], the IC50 lay within 10 to 100 nM.
Turning to `Cc1ccc(O)c(C)c1-n1nc(-c2ccccc2Cl)c(C(N)=O)c1N` [Compound 62], the IC50 in assay [1] is over 250 nM.
On the same count and under the same terms, then `Cc1cccc(-c2nn(-c3c(C)ccc(O)c3C)c(N)c2C(N)=O)c1` [Compound 63], with 10 to 100 nM.
Consider `COc1ccccc1-c1nn(-c2c(C)ccc(O)c2C)c(N)c1C(N)=O` [Compound 64], for which, in assay [1], the IC50 is over 250 nM.
Same read-out and setting: for `Cc1ccc(O)c(C)c1-n1nc(-c2ccccc2F)c(C(N)=O)c1N` [Compound 65] the value was 10 to 100 nM; for `Cc1ccccc1-c1nn(-c2c(C)ccc(O)c2C)c(N)c1C(N)=O` [Compound 66], over 250 nM.
Consider `Cc1cc(Cl)c(O)c(C)c1-n1nc(-c2ccc(Br)o2)c(C(N)=O)c1N` [Compound 74, 5-amino-3-(5-bromo-2-furyl)-1-(4-chloro-3-hydroxy-2,6-xylyl)-4-pyrazolecarboxamide], for which the EC50 at Myt1 Kinase is over 1000 nM. Also, the IC50 in assay [1] was in the range of 10 to 100 nM.
Turning to `Cc1ccc(O)c(C)c1-n1nc(-c2ccoc2)c(C(N)=O)c1N` [Compound 76, 5-amino-3-(3-furyl)-1-(3-hydroxy-2,6-xylyl)-4-pyrazolecarboxamide], the EC50 at Myt1 Kinase is over 1000 nM. Moreover, in assay [1], the IC50 fell in the range of 10 to 100 nM.
On the same counts, the results for `Cc1ccc2[nH]ncc2c1-n1nc(-c2cc3ccccc3o2)c(C(N)=O)c1N` [Compound 77, 5-amino-3-(1-benzofuran-2-yl)-1-(5-methyl-1H-indazol-4-yl)-4-pyrazolecarboxamide] are over 1000 nM and 10 to 100 nM.
On the same counts, the results for `Cc1ccc(O)c(C)c1-n1nc(-c2coc(Br)c2)c(C(N)=O)c1N` [Compound 78, 5-amino-3-(5-bromo-3-furyl)-1-(3-hydroxy-2,6-xylyl)-4-pyrazolecarboxamide] are 250 to 500 nM and 10 to 100 nM.
Regarding `Cc1ccoc1-c1nn(-c2c(C)ccc(O)c2C)c(N)c1C(N)=O` [Compound 83, 5-amino-1-(3-hydroxy-2,6-xylyl)-3-(3-methyl-2-furyl)-4-pyrazolecarboxamide], on Myt1 Kinase, the EC50 is over 1000 nM. In addition, in assay [1], the IC50 was in the range of 10 to 100 nM.
On to `Cc1ccc2[nH]ncc2c1-n1nc(-c2ccco2)c(C(N)=O)c1N` [Compound 84, 5-amino-3-(2-furyl)-1-(5-methyl-1H-indazol-4-yl)-4-pyrazolecarboxamide], for which, at Myt1 Kinase, the EC50 is over 1000 nM. Further, in assay [1], the IC50 is 10 to 100 nM.
On the same counts, the results for `Cc1ccc2[nH]ncc2c1-n1nc(-c2ccc(Br)o2)c(C(N)=O)c1N` [Compound 85, 5-amino-3-(5-bromo-2-furyl)-1-(5-methyl-1H-indazol-4-yl)-4-pyrazolecarboxamide] are over 1000 nM and 10 to 100 nM.
On to `Cc1ccc(O)c(C)c1-n1nc(-c2cnn(C)c2)c(C(N)=O)c1N` [Compound 121], for which, in assay [1], the IC50 lay within 10 to 100 nM.

These data come from patent publication US20260209208A1, “PHENYL-PYRAZOLE CARBOXAMIDE COMPOUNDS” (Acrivon Therapeutics, Inc., priority 2022, published 2026).
